# Assay results reported in patent publication US10358434B2, “2-(3-pyridinyl)-1H-benzimidazole derivative compound and medicament containing same” (NIHON MEDI-PHYSICS CO., LTD., priority 2014, dated 2019).
# Legend:
# [1] = test system: human adrenal gland section expressing aldosterone-producing adenoma; experiment: In vitro autoradiography using human adrenal adenoma; type: binding; details: section of FIG. 17(a)
# In short: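 Frozen 7-μm sections of human adrenal bearing aldosterone-producing adenoma were immersed 10 min in radioligand (5-33 kBq/mL) in PBS with 1% fatty-acid-free BSA, washed, then exposed to imaging plates for 16-20 h. Equal-area ROI PSL in adenoma (B2) versus normal cortex (B1) gave B2/B1, corrected for nuclide half-life, added activity and exposure time.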
# [2] = In vivo kinetics experiment (radioactivity distribution); design: species or system Wistar male rat; details: rat, caudal vein
# In short: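 Male Wistar rats (9 weeks) under isoflurane received approximately 1 to 3.7 MBq radiotracer in saline with 1 w/v % ascorbic acid by tail-vein injection. At 10, 30 and 60 min, rats were exsanguinated; blood, organs and remaining body weighed and counted, giving % ID/g and adrenal-to-tissue ratios.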
# [3] = Plasma stability evaluation (TLC analysis); type: in vitro ADME; details: 37° C., 60 minutes, TLC analysis
# In short: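 Radiolabelled compounds were incubated in heparin-treated pooled normal human plasma at 37° C for 60 minutes. After methanol deproteinization and centrifugation, stability was assessed by TLC under the conditions used for each compound's synthesis.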
smiles,measurement,setting,value
"[123I]c1ccc2nc(-c3cncc(Cn4ccnc4)c3)n(C3CC3)c2c1 [[^123I] 602, 1-Cyclopropyl-2-[3-(1H-imidazol-1-ylmethyl)pyridin-5-yl]-6-[^123I]iodo-1H-benzimidazole]",B2/B1 accumulation ratio,[1],2.06
same,"B2 (PSL value, aldosterone-producing adenoma)",[1]; site 71a,6142
same,"B1 (PSL value, normal adrenal cortex)",[1]; site 72a,2981
same,Adrenal gland/blood ratio of radioactivity accumulation,[2]; 10 min after administration,28.34 ± 5.95
same,Adrenal gland/fat ratio of radioactivity accumulation,[2]; 10 min after administration,89.23 ± 14.22
same,Adrenal gland/kidney ratio of radioactivity accumulation,[2]; 10 min after administration,5.85 ± 1.07
same,Adrenal gland/liver ratio of radioactivity accumulation,[2]; 10 min after administration,3.02 ± 0.41
same,Adrenal gland/muscle ratio of radioactivity accumulation,[2]; 10 min after administration,54.21 ± 12.64
same,Adrenal gland/small intestine ratio of radioactivity accumulation,[2]; 10 min after administration,6.95 ± 1.48
same,Radioactivity distribution Adrenal gland,[2]; 10 min after administration,9.09 ± 2.28 % ID/g
same,Radioactivity distribution Bladder (including urine),[2]; 10 min after administration,0.32 ± 0.15 % ID/g
same,Radioactivity distribution Blood,[2]; 10 min after administration,0.32 ± 0.01 % ID/g
same,Radioactivity distribution Fat,[2]; 10 min after administration,0.10 ± 0.01 % ID/g
same,Radioactivity distribution Heart,[2]; 10 min after administration,0.63 ± 0.07 % ID/g
same,Radioactivity distribution Kidney,[2]; 10 min after administration,1.54 ± 0.11 % ID/g
same,Radioactivity distribution Large intestine,[2]; 10 min after administration,0.19 ± 0.00 % ID/g
same,Radioactivity distribution Liver,[2]; 10 min after administration,2.98 ± 0.35 % ID/g
same,Radioactivity distribution Lung,[2]; 10 min after administration,1.06 ± 0.09 % ID/g
same,Radioactivity distribution Muscle (lower limbs),[2]; 10 min after administration,0.17 ± 0.00 % ID/g
same,Radioactivity distribution Remaining whole body,[2]; 10 min after administration,0.27 ± 0.01 % ID/g
same,Radioactivity distribution Small intestine,[2]; 10 min after administration,1.30 ± 0.05 % ID/g
same,Radioactivity distribution Spleen,[2]; 10 min after administration,5.26 ± 1.78 % ID/g
same,Radioactivity distribution Stomach,[2]; 10 min after administration,1.03 ± 0.28 % ID/g
same,Radioactivity distribution Testis,[2]; 10 min after administration,0.07 ± 0.02 % ID/g
same,Radioactivity distribution Thyroid gland,[2]; 10 min after administration,3.54 ± 0.37 % ID/g
same,Radioactivity distribution Whole brain,[2]; 10 min after administration,0.02 ± 0.00 % ID/g
same,Adrenal gland/blood ratio of radioactivity accumulation,[2]; 30 min after administration,40.26 ± 12.64
same,Adrenal gland/fat ratio of radioactivity accumulation,[2]; 30 min after administration,147.73 ± 74.06
same,Adrenal gland/kidney ratio of radioactivity accumulation,[2]; 30 min after administration,17.90 ± 4.66
same,Adrenal gland/liver ratio of radioactivity accumulation,[2]; 30 min after administration,13.82 ± 3.67
same,Adrenal gland/muscle ratio of radioactivity accumulation,[2]; 30 min after administration,110.91 ± 25.83
same,Adrenal gland/small intestine ratio of radioactivity accumulation,[2]; 30 min after administration,9.24 ± 1.46
same,Radioactivity distribution Adrenal gland,[2]; 30 min after administration,16.93 ± 3.32 % ID/g
same,Radioactivity distribution Bladder (including urine),[2]; 30 min after administration,1.35 ± 0.14 % ID/g
same,Radioactivity distribution Blood,[2]; 30 min after administration,0.43 ± 0.05 % ID/g
same,Radioactivity distribution Fat,[2]; 30 min after administration,0.12 ± 0.04 % ID/g
same,Radioactivity distribution Heart,[2]; 30 min after administration,0.49 ± 0.01 % ID/g
same,Radioactivity distribution Kidney,[2]; 30 min after administration,0.95 ± 0.06 % ID/g
same,Radioactivity distribution Large intestine,[2]; 30 min after administration,0.19 ± 0.00 % ID/g
same,Radioactivity distribution Liver,[2]; 30 min after administration,1.24 ± 0.09 % ID/g
same,Radioactivity distribution Lung,[2]; 30 min after administration,0.76 ± 0.04 % ID/g
same,Radioactivity distribution Muscle (lower limbs),[2]; 30 min after administration,0.15 ± 0.01 % ID/g
same,Radioactivity distribution Remaining whole body,[2]; 30 min after administration,0.31 ± 0.01 % ID/g
same,Radioactivity distribution Small intestine,[2]; 30 min after administration,1.83 ± 0.07 % ID/g
same,Radioactivity distribution Spleen,[2]; 30 min after administration,5.44 ± 1.82 % ID/g
same,Radioactivity distribution Stomach,[2]; 30 min after administration,2.24 ± 0.39 % ID/g
same,Radioactivity distribution Testis,[2]; 30 min after administration,0.12 ± 0.00 % ID/g
same,Radioactivity distribution Thyroid gland,[2]; 30 min after administration,9.97 ± 0.74 % ID/g
same,Radioactivity distribution Whole brain,[2]; 30 min after administration,0.02 ± 0.00 % ID/g
same,Adrenal gland/blood ratio of radioactivity accumulation,[2]; 60 min after administration,29.41 ± 3.13
same,Adrenal gland/fat ratio of radioactivity accumulation,[2]; 60 min after administration,105.17 ± 28.98
same,Adrenal gland/kidney ratio of radioactivity accumulation,[2]; 60 min after administration,18.87 ± 3.12
same,Adrenal gland/liver ratio of radioactivity accumulation,[2]; 60 min after administration,16.66 ± 3.13
same,Adrenal gland/muscle ratio of radioactivity accumulation,[2]; 60 min after administration,95.38 ± 22.07
same,Adrenal gland/small intestine ratio of radioactivity accumulation,[2]; 60 min after administration,6.64 ± 2.31
same,Radioactivity distribution Adrenal gland,[2]; 60 min after administration,11.65 ± 1.54 % ID/g
same,Radioactivity distribution Bladder (including urine),[2]; 60 min after administration,1.27 ± 0.07 % ID/g
same,Radioactivity distribution Blood,[2]; 60 min after administration,0.40 ± 0.01 % ID/g
same,Radioactivity distribution Fat,[2]; 60 min after administration,0.11 ± 0.02 % ID/g
same,Radioactivity distribution Heart,[2]; 60 min after administration,0.35 ± 0.03 % ID/g
same,Radioactivity distribution Kidney,[2]; 60 min after administration,0.62 ± 0.08 % ID/g
same,Radioactivity distribution Large intestine,[2]; 60 min after administration,0.43 ± 0.19 % ID/g
same,Radioactivity distribution Liver,[2]; 60 min after administration,0.70 ± 0.05 % ID/g
same,Radioactivity distribution Lung,[2]; 60 min after administration,0.60 ± 0.03 % ID/g
same,Radioactivity distribution Muscle (lower limbs),[2]; 60 min after administration,0.12 ± 0.02 % ID/g
same,Radioactivity distribution Remaining whole body,[2]; 60 min after administration,0.33 ± 0.02 % ID/g
same,Radioactivity distribution Small intestine,[2]; 60 min after administration,1.85 ± 0.44 % ID/g
same,Radioactivity distribution Spleen,[2]; 60 min after administration,5.27 ± 0.89 % ID/g
same,Radioactivity distribution Stomach,[2]; 60 min after administration,4.35 ± 0.25 % ID/g
same,Radioactivity distribution Testis,[2]; 60 min after administration,0.15 ± 0.01 % ID/g
same,Radioactivity distribution Thyroid gland,[2]; 60 min after administration,19.76 ± 1.03 % ID/g
same,Radioactivity distribution Whole brain,[2]; 60 min after administration,0.02 ± 0.00 % ID/g
same,Radiochemical purity after incubation in human plasma,[3],82%
